From ChEMBL document CHEMBL1201862, “PubChem BioAssay data set” (2004)
Calls of active or inactive are those of the source.

Legend:
[1] = target: T1, E3 ubiquitin-protein ligase XIAP (Homo sapiens, UniProt P98170); assay: XIAP antagonists, biochemical, IAP family, fluorescence polarization (AID 1018); format: functional
[2] = target: T1, E3 ubiquitin-protein ligase XIAP; assay: Counter Screen using XIAP-Bir3 for Chemical Antagonists of Bir1/2 domains of IAP-family anti-apoptotic proteins. [Related pubchem assays (depositor defined):AID1018, AID1449, AID1514, AID1638, AID1749, AID1750, AID488957, AID488963]
Genome polyprotein = Genome polyprotein (dengue virus type 2, UniProt P29990); assay: Dengue-2 NS5 methyltransferase inhibitors, primary screen, biochemical, confirmation dose response (AID 588689); format: functional
[3] = target: Glucose-6-phosphate 1-dehydrogenase (Homo sapiens, UniProt P11413); assay: human G6PD enzyme inhibitors, dose response, selectivity assay for P. falciparum G6PD inhibitor project, biochemical, fluorescence (AID 504792); format: functional
[4] = target: Glyceraldehyde-3-phosphate dehydrogenase (Homo sapiens, UniProt P04406)
[5] = target: T2, Alkaline phosphatase, tissue-nonspecific isozyme (Homo sapiens, UniProt P05186); assay: human TNAP enzyme inhibitors, SAR follow-up, biochemical, luminescent, dose response (AID 1056)
T2 sequence (P05186 whole entry): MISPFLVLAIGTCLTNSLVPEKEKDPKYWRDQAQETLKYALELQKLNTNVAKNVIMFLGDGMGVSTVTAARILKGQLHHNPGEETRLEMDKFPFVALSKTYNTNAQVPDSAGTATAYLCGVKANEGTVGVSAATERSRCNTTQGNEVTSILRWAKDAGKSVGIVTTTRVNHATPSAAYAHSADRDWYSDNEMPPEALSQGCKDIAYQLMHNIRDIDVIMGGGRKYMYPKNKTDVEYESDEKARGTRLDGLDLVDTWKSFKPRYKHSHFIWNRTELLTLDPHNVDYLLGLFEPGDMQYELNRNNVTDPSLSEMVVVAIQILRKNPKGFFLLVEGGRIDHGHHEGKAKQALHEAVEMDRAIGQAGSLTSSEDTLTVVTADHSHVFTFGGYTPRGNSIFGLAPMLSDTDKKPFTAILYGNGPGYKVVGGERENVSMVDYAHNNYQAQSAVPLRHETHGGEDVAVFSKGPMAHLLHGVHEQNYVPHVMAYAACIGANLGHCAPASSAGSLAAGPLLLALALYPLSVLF

[6] = target: Sphingosine 1-phosphate receptor 1 (Homo sapiens, UniProt P21453); assay: Fluorescence-based counterscreen assay for S1P4 agonists: Cell-based dose response high throughput screening assay to identify agonists of the Sphingosine 1-Phosphate Receptor 1 (S1P1). [Related pubchem assays (depositor defined):AID1509, AID1523, AID1801, AID463107, AID463118, AID463119, AID463122, AID463123, AID463129, AID463225, AID504400, AID504460]; format: functional
[7] = target: T3, Sphingosine 1-phosphate receptor 4 (Homo sapiens, UniProt O95977); assay: Fluorescence dose response cell-based high throughput screening assay for agonists of the Sphingosine 1-Phosphate Receptor 4 (S1P4). [Related pubchem assays: 1509 (Primary screen.), 1523 (Confirmation screen in triplicates.)]; format: functional
T3 sequence (O95977 whole entry): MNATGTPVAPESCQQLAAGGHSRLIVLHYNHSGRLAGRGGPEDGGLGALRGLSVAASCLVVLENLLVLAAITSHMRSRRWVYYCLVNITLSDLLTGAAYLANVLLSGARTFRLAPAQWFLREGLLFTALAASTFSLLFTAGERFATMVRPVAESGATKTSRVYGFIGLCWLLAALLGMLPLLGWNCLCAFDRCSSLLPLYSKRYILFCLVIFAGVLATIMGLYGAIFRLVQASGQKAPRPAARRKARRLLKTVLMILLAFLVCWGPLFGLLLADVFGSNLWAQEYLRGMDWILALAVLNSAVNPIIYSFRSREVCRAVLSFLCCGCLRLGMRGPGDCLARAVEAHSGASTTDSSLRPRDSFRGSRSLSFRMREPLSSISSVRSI

[8] = target: T3, Sphingosine 1-phosphate receptor 4; assay: Late-stage fluorescence dose response cell-based assay to identify agonists of the Sphingosine 1-Phosphate Receptor 4 (S1P4): purchased compounds EC50. [Related pubchem assays (depositor defined):AID1509, AID1523, AID1563, AID1686, AID1701, AID1801]; format: functional
Cytochrome P450 2D6 = Cytochrome P450 2D6 (Homo sapiens, UniProt P10635);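 further: CYP2D6 member of a cytochrome P450 panel assay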
[9] = target: Voltage-gated inwardly rectifying potassium channel KCNH2 (Homo sapiens, UniProt Q12809); conditions: Potency;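 further: confirmatory quantitative high-throughput screen measuring inhibition of hERG channel activity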
Cytochrome P450 3A4 = Cytochrome P450 3A4 (Homo sapiens, UniProt P08684); conditions: Potency;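 further: confirmatory qHTS run detecting inhibitors and substrates of CYP3A4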
Cytochrome P450 3A4, sequence (P08684 whole entry): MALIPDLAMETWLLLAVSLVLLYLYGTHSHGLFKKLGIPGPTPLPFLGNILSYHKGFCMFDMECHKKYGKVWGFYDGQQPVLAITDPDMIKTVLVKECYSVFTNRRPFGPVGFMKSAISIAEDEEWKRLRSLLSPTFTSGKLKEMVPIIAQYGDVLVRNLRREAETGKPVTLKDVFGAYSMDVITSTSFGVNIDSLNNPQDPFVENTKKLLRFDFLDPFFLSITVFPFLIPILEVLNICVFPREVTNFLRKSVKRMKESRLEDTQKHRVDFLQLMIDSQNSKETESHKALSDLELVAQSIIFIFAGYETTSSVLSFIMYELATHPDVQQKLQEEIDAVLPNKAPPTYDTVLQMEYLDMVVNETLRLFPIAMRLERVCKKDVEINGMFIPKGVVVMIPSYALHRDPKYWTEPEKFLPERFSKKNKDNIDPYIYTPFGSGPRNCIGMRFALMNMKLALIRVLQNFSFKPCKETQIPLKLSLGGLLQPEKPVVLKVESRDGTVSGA

T1 sequence (P98170 whole entry): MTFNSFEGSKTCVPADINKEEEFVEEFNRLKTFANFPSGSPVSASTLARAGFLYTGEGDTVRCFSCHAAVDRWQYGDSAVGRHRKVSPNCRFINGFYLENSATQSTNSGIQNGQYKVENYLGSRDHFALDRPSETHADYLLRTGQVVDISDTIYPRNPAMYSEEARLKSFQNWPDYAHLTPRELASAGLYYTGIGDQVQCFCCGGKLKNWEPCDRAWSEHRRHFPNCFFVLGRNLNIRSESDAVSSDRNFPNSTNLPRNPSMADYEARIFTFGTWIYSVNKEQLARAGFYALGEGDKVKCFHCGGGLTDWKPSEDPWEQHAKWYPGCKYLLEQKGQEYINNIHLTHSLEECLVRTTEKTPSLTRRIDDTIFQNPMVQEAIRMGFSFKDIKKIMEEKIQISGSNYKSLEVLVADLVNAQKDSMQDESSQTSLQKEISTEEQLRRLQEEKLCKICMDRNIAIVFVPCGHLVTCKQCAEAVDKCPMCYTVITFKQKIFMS
Glucose-6-phosphate 1-dehydrogenase, sequence (P11413 whole entry): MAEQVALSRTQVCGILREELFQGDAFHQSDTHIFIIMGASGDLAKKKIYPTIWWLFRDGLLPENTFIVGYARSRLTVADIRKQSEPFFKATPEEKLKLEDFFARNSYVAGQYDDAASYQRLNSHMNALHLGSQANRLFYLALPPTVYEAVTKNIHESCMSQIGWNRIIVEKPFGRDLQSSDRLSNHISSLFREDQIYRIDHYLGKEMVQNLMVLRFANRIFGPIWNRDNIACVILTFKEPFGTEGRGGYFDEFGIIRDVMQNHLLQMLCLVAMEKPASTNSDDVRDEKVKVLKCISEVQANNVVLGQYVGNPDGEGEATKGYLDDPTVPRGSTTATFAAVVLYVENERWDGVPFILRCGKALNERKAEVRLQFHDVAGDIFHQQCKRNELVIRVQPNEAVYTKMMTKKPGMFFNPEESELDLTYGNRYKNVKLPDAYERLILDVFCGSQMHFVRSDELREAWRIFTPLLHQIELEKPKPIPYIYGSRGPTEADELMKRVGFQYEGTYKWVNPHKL
Sphingosine 1-phosphate receptor 1, sequence (P21453 whole entry): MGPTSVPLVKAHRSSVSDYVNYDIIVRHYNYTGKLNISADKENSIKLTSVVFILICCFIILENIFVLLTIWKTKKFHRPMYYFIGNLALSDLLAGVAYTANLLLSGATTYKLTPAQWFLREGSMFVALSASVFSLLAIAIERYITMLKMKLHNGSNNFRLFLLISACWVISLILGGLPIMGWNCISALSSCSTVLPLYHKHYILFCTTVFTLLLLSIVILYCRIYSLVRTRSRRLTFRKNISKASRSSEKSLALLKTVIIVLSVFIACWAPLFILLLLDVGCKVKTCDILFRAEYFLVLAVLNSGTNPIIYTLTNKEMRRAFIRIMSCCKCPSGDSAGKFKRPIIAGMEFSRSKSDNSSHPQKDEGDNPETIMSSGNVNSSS
Voltage-gated inwardly rectifying potassium channel KCNH2, sequence (Q12809 whole entry): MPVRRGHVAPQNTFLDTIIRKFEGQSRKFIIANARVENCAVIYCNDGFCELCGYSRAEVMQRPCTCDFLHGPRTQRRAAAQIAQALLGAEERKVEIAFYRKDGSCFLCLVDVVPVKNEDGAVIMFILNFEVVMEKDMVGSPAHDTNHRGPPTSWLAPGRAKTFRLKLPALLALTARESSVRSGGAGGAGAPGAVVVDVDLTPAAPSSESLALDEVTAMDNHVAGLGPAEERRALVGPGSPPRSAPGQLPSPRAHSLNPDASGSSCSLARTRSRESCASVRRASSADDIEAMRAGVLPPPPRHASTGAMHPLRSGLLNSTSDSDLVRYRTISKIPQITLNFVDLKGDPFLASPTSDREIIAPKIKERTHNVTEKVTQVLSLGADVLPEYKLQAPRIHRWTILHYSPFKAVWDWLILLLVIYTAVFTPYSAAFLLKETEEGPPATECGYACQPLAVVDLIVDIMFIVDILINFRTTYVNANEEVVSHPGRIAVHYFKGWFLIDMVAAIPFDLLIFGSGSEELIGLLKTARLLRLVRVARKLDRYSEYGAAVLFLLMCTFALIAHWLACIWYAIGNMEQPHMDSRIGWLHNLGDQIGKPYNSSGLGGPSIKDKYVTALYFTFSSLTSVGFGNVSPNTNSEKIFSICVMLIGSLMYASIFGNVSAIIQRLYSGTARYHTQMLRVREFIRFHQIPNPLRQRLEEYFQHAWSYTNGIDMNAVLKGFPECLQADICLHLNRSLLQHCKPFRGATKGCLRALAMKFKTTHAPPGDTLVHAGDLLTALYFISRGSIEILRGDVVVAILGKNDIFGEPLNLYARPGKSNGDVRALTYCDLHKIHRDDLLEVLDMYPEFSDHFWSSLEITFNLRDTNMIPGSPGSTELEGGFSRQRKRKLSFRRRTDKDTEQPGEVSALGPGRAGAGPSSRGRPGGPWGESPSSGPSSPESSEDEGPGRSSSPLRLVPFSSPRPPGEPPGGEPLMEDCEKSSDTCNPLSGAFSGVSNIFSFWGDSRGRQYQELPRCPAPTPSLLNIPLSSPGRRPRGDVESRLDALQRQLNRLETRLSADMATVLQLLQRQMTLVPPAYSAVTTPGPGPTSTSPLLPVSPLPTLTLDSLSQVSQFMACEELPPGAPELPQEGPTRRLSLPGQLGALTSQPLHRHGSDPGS
Cytochrome P450 2D6, sequence (P10635 whole entry): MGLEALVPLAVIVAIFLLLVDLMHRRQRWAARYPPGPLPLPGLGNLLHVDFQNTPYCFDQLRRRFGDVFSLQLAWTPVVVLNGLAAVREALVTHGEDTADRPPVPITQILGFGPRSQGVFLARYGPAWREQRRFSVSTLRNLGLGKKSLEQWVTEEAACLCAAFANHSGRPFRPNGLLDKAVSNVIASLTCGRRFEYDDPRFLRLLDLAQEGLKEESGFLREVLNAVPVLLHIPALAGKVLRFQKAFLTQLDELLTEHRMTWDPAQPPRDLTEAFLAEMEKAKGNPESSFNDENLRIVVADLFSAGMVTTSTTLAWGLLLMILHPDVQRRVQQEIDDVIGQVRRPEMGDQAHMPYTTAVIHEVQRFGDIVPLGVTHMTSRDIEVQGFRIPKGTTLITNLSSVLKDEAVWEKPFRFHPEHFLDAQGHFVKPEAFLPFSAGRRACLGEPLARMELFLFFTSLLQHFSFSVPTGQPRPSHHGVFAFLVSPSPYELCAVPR
Genome polyprotein, sequence (P29990 2492-3391 limits assumed): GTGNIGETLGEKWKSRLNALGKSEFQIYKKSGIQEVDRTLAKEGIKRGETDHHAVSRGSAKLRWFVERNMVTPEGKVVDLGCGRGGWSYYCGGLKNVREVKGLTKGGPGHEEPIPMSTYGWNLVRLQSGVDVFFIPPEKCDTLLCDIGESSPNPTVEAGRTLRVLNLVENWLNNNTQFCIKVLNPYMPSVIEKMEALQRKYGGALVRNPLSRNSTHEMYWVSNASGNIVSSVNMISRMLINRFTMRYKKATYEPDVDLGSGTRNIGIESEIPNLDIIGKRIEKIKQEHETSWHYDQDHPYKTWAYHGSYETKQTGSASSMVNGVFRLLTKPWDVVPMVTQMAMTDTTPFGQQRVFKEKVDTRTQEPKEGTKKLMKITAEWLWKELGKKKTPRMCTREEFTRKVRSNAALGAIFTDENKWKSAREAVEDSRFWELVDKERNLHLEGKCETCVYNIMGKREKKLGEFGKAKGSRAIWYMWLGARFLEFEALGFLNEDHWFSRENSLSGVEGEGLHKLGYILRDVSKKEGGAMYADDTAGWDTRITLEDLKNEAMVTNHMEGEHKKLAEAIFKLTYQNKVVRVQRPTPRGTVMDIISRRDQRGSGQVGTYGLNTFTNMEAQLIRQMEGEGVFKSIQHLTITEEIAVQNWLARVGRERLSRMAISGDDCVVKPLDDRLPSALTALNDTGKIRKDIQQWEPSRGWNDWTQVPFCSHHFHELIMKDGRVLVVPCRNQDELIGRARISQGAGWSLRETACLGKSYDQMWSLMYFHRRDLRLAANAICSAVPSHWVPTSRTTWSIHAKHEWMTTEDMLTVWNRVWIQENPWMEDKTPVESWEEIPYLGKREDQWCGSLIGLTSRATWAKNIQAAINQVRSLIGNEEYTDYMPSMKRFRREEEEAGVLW
Glyceraldehyde-3-phosphate dehydrogenase, sequence (P04406 whole entry): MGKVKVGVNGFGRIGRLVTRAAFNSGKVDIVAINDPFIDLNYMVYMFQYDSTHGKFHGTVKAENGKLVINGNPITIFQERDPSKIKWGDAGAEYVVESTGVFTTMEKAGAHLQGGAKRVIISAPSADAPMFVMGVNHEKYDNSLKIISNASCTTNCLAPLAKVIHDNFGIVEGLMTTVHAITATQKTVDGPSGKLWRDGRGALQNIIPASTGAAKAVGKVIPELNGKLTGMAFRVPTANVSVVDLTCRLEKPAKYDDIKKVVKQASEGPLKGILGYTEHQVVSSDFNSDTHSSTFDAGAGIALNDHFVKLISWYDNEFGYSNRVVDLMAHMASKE

CCc1c(C)sc(NC(=O)OC)c1C(=O)N1CCCCC1
IC50 [1]: > 25 µM (not active) | IC50 [2]: 54.6 µM (active) | IC50 (Genome polyprotein): > 100 µM (active)

COc1ccc(CN(C)S(=O)(=O)c2nnc(NC(=O)c3ccc(C)cc3)s2)cc1OC
IC50 [3]: 46 µM (inactive)

COc1ccc(OC)c(S(=O)(=O)Nc2ccc3ccccc3c2)c1
IC50 [4]: > 10 µM (inconclusive) | IC50 [5]: > 10 µM (inactive)

N#Cc1c(-n2cccc2C=O)sc2c1CCCC2
EC50 [6]: > 49.8 µM (inactive) | EC50 [7]: 32.2 µM (not active)

Cc1ccc(OCc2cn3cc(Cl)ccc3n2)c([N+](=O)[O-])n1
EC50 [8]: > 50 µM (inactive)

COc1cccc(CN2C(=O)N(C(C)C)C(N(O)C(=O)NC(C)C)C2(C)C)c1OC (stereo not given)
AC50 (Cytochrome P450 2D6): inconclusive

COc1ccc(-n2nc(C(=O)N3CCN(Cc4ccc5c(c4)OCO5)CC3)c3ccccc3c2=O)cc1
IC50 [1]: > 100 µM (not active) | IC50 [2]: > 100 µM (inactive)

N#Cc1ccc(Oc2cccc3cccnc23)c([N+](=O)[O-])c1
IC50 [3]: > 80 µM (inactive)

Nc1ccccc1C(=O)OCCc1ccccc1
AC50 [9]: 39.8 µM (inconclusive) | AC50 (Cytochrome P450 3A4): 12.6 µM (inconclusive)
